ChEMBL document CHEMBL5226376, “A Streptomyces Cytochrome P450 Enzyme Catalyzes Regiospecific C2-Guaninylation for the Synthesis of Diverse Guanitrypmycin Analogs” (J Nat Prod, 2023)
Active and inactive are the calls of the source.

Key:
Assay type in all cases: functional, organism-based
Escherichia coli [1] = experiment: Antibacterial activity against Escherichia coli ATCC 25922 assessed as inhibition of bacterial growth incubated for overnight by disk diffusion method
Escherichia coli [2] = experiment: Antibacterial activity against Escherichia coli DH5alpha assessed as inhibition of bacterial growth incubated for overnight by disk diffusion method
Enterococcus faecalis = experiment: Antibacterial activity against Enterococcus faecalis DSM2570 assessed as inhibition of bacterial growth incubated for overnight by disk diffusion method
Klebsiella pneumoniae = experiment: Antibacterial activity against Klebsiella pneumoniae DSM26371 assessed as inhibition of bacterial growth incubated for overnight by disk diffusion method
Bacillus subtilis [3] = experiment: Antibacterial activity against Bacillus subtilis NCIB3610 assessed as inhibition of bacterial growth incubated for overnight by disk diffusion method
Bacillus subtilis [4] = experiment: Antibacterial activity against Bacillus subtilis BSB01 assessed as inhibition of bacterial growth incubated for overnight by disk diffusion method
Niallia circulans [5] = experiment: Antibacterial activity against Bacillus circulans NRRLB-380 assessed as inhibition of bacterial growth incubated for overnight by disk diffusion method
Niallia circulans [6] = experiment: Antibacterial activity against Bacillus circulans NRRLB-14032 assessed as inhibition of bacterial growth incubated for overnight by disk diffusion method
Niallia circulans [7] = experiment: Antibacterial activity against Bacillus circulans NRRLNRS-1108 assessed as inhibition of bacterial growth incubated for overnight by disk diffusion method
Staphylococcus aureus = experiment: Antibacterial activity against Staphylococcus aureus ATCC 29213 assessed as inhibition of bacterial growth incubated for overnight by disk diffusion method
Staphylococcus delphini = experiment: Antibacterial activity against Staphylococcus delphini DSM20771 assessed as inhibition of bacterial growth incubated for overnight by disk diffusion method
Pseudomonas aeruginosa = experiment: Antibacterial activity against Pseudomonas aeruginosa ATCC 27853 assessed as inhibition of bacterial growth incubated for overnight by disk diffusion method

Measured: Activity

Nc1nc2[nH]c(-c3[nH]c4ccccc4c3C[C@@H]3NC(=O)[C@H](Cc4ccc(O)cc4)NC3=O)nc2c(=O)[nH]1
inactive: Escherichia coli [1] | Escherichia coli [2] | Enterococcus faecalis | Klebsiella pneumoniae | Bacillus subtilis [3] | Bacillus subtilis [4] | Niallia circulans [5] | Niallia circulans [6] | Niallia circulans [7] | Staphylococcus aureus | Staphylococcus delphini | Pseudomonas aeruginosa

Nc1nc2[nH]c(-c3[nH]c4ccccc4c3C[C@@H]3NC(=O)[C@H](Cc4ccccc4)NC3=O)nc2c(=O)[nH]1
inactive: Escherichia coli [1] | Escherichia coli [2] | Enterococcus faecalis | Klebsiella pneumoniae | Bacillus subtilis [3] | Bacillus subtilis [4] | Niallia circulans [5] | Niallia circulans [6] | Niallia circulans [7] | Staphylococcus aureus | Staphylococcus delphini | Pseudomonas aeruginosa

Nc1nc2[nH]c(-c3[nH]c4ccccc4c3C[C@@H]3NC(=O)/C(=C/c4ccc(O)cc4)NC3=O)nc2c(=O)[nH]1
inactive: Escherichia coli [1] | Escherichia coli [2] | Enterococcus faecalis | Klebsiella pneumoniae | Bacillus subtilis [3] | Bacillus subtilis [4] | Niallia circulans [5] | Niallia circulans [6] | Niallia circulans [7] | Staphylococcus aureus | Staphylococcus delphini | Pseudomonas aeruginosa

Nc1nc2[nH]c(-c3[nH]c4ccccc4c3C[C@@H]3NC(=O)[C@H](Cc4c[nH]c5ccccc45)NC3=O)nc2c(=O)[nH]1
inactive: Escherichia coli [1] | Escherichia coli [2] | Enterococcus faecalis | Klebsiella pneumoniae | Bacillus subtilis [3] | Bacillus subtilis [4] | Niallia circulans [5] | Niallia circulans [6] | Niallia circulans [7] | Staphylococcus aureus | Staphylococcus delphini | Pseudomonas aeruginosa

Nc1nc2[nH]c(-c3[nH]c4ccccc4c3C[C@@H]3NC(=O)/C(=C/c4ccccc4)NC3=O)nc2c(=O)[nH]1
inactive: Escherichia coli [1] | Escherichia coli [2] | Enterococcus faecalis | Klebsiella pneumoniae | Bacillus subtilis [3] | Bacillus subtilis [4] | Niallia circulans [5] | Niallia circulans [6] | Niallia circulans [7] | Staphylococcus aureus | Staphylococcus delphini | Pseudomonas aeruginosa
